Measurements taken from the supplement of paper PMC11061612.

How the values were obtained:
IM-9 (Non-Cancerous) = experiment: combination Emax (second highest fraction inhibited in the dose matrix, 72 h); higher = more inhibition; extreme values may be limits of the assay
Procedure, shortened: (§1)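 Cell lines grown in DMEM/F12 or RPMI with 10% FBS were plated in 1536-well plates and held 24 hours at 37°C, 5% CO2 before 72 hours of exposure to two-drug dose matrices, with DMSO typically at 0.2%. CellTiter-Glo 2.0 luminescence gave viability, which was converted to inhibition. Vehicle wells were set to 0 and blank wells to 1. Combination Emax is the second-highest inhibition in the matrix, and Bliss excess is the observed combination effect minus the expected EA + EB − EA·EB, where EA and EB are the single-agent effects.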

[1] = tested on: CGTH-W-1 (Thyroid Gland Carcinoma); experiment: as above
Procedure, shortened: as §1

[2] = tested on: JHU-022 (Oral Cavity Carcinoma); experiment: as above
Procedure, shortened: as §1

[3] = tested on: LU-165 (Small Cell Lung Carcinoma); experiment: Bliss excess, mean over the matrix (fraction); higher = more synergy
Procedure, shortened: as §1

[4] = tested on: SW620 (Colorectal Carcinoma); experiment: as above
Procedure, shortened: as §1

[5] = tested on: HCC1395 (Breast Carcinoma); experiment: as above
Procedure, shortened: as §1

[6] = tested on: CGTH-W-1 (Thyroid Gland Carcinoma); experiment: as above
Procedure, shortened: as §1

[7] = tested on: 22RV1 (Prostate Carcinoma); experiment: as above
Procedure, shortened: as §1

[8] = tested on: JHU-022 (Oral Cavity Carcinoma); experiment: as above
Procedure, shortened: as §1

EB2 (Burkitt's Lymphoma) = experiment: as above
Procedure, shortened: as §1

HCC70 (Breast Carcinoma) = experiment: as above
Procedure, shortened: as §1

[9] = tested on: NCI-H1703 (Squamous Cell Lung Carcinoma); experiment: as above
Procedure, shortened: as §1

[10] = tested on: MHH-ES-1 (Ewing's Sarcoma); experiment: as above
Procedure, shortened: as §1

[11] = tested on: KYSE-220 (Esophageal Squamous Cell Carcinoma); experiment: as above
Procedure, shortened: as §1

[12] = tested on: NCI-H441 (Lung Adenocarcinoma); experiment: as above
Procedure, shortened: as §1

769-P (Kidney Carcinoma) = experiment: as above
Procedure, shortened: as §1

[13] = tested on: MDA-MB-436 (Breast Carcinoma); experiment: as above
Procedure, shortened: as §1

[14] = tested on: A2780 (Ovarian Carcinoma); experiment: as above
Procedure, shortened: as §1

[15] = tested on: JHH-2 (Hepatocellular Carcinoma); experiment: as above
Procedure, shortened: as §1

[16] = tested on: UACC-812 (Breast Carcinoma); experiment: as above
Procedure, shortened: as §1
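For Bliss excess, mean over the matrix in this document: after 72 h of two-drug dosing.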

Row | Compound | combination Emax (IM-9 (Non-Cancerous)) | combination Emax [1] | combination Emax [2] | Bliss excess [3] | Bliss excess [4] | Bliss excess [5] | Bliss excess [6] | Bliss excess [7] | Bliss excess [8] | Bliss excess (EB2 (Burkitt's Lymphoma)) | Bliss excess (HCC70 (Breast Carcinoma)) | Bliss excess [9] | Bliss excess [10] | Bliss excess [11] | Bliss excess [12] | Bliss excess (769-P (Kidney Carcinoma)) | Bliss excess [13] | Bliss excess [14] | Bliss excess [15] | Bliss excess [16]
1 | CN(CCO)CC[C@H](CSc1ccccc1)Nc1ccc(S(=O)(=O)NC(=O)c2ccc(N3CCC([C@@H](O)c4ccccc4-c4ccc(Cl)cc4)CC3)cc2)cc1S(=O)(=O)C(F)(F)F [AZD4320] + C1CN(CCC1(C(=O)N[C@@H](CCO)C2=CC=C(C=C2)Cl)N)C3=NC=NC4=C3C=CN4 [Capivasertib] (first compound max 1 µM, 7x7, partner max 3 µM) | 0.586 | 0.19 | 0.308 | -0.042 | -0.0498 | -0.0479 | -0.0436 | -0.0486 | -0.0491 | 0.0549 | 0.0327 | 0.0251 | -0.0261 | -0.0056 | -0.0503 | -0.0478 | -0.0329 | -0.0734 | -0.0031 | -0.0135
2 | CN(CCO)CC[C@H](CSc1ccccc1)Nc1ccc(S(=O)(=O)NC(=O)c2ccc(N3CCC([C@@H](O)c4ccccc4-c4ccc(Cl)cc4)CC3)cc2)cc1S(=O)(=O)C(F)(F)F [AZD4320] + C=CCn1c(=O)c2cnc(Nc3ccc(N4CCN(C)CC4)cc3)nc2n1-c1cccc(C(C)(C)O)n1 [AZD1775] (first compound max 1 µM, partner max 1 µM) | 1 | 0.106 | 0.579 | 0.0775 | 0.021 | -0.0345 | -0.035 | -0.0487 | 0.032 | 0.0346 | 0.006 | 0.0572 | 0.0439 | -0.047 | 0.0365 | -0.0025 | -0.0404 | 0.0284 | -0.0067 | -0.0281
3 | CN(CCO)CC[C@H](CSc1ccccc1)Nc1ccc(S(=O)(=O)NC(=O)c2ccc(N3CCC([C@@H](O)c4ccccc4-c4ccc(Cl)cc4)CC3)cc2)cc1S(=O)(=O)C(F)(F)F [AZD4320] + CC(=O)O[C@H]1C(=O)[C@@]2(C)[C@H]([C@H](OC(=O)c3ccccc3)[C@]3(O)C[C@H](OC(=O)[C@H](O)[C@@H](NC(=O)c4ccccc4)c4ccccc4)C(C)=C1C3(C)C)[C@]1(OC(C)=O)CO[C@@H]1C[C@@H]2O [Paclitaxel] (first compound max 1 µM, 7x7, partner max 3 µM) | 1 | 0.881 | 0.846 | 0.137 | 0.11 | 0.174 | 0.277 | -0.0017 | 0.155 | -0.0306 | 0.0533 | -0.0223 | 0.0393 | 0.0169 | 0.0861 | -0.0444 | 0.0892 | -0.0362 | -0.0037 | 0.0887
4 | CN(CCO)CC[C@H](CSc1ccccc1)Nc1ccc(S(=O)(=O)NC(=O)c2ccc(N3CCC([C@@H](O)c4ccccc4-c4ccc(Cl)cc4)CC3)cc2)cc1S(=O)(=O)C(F)(F)F [AZD4320] + CCN(CCO)CCCOc1ccc2c(Nc3cc(CC(=O)Nc4cccc(F)c4)[nH]n3)ncnc2c1 [AZD2811] (first compound max 1 µM, 7x7, partner max 1 µM) | 1 | 0.292 | 0.315 | -0.0081 | 0.0931 | 0.0121 | – | -0.0342 | -0.0183 | 0.0254 | 0.0345 | 0.0384 | 0.14 | 0.0129 | -0.0407 | 0.0052 | -0.0619 | -0.0048 | -0.0489 | -0.0194
5 | CN(CCO)CC[C@H](CSc1ccccc1)Nc1ccc(S(=O)(=O)NC(=O)c2ccc(N3CCC([C@@H](O)c4ccccc4-c4ccc(Cl)cc4)CC3)cc2)cc1S(=O)(=O)C(F)(F)F [AZD4320] + C[C@@H]1COCCN1C2=NC(=NC(=C2)C3(CC3)[S@](=N)(=O)C)C4=C5C=CNC5=NC=C4 [AZD6738] (first compound max 1 µM, 7x7, partner max 10 µM) | 1 | 0.424 | 0.753 | -0.0344 | -0.0151 | 0.0007 | -0.0342 | -0.133 | -0.0035 | 0.0248 | -0.0318 | 0.0053 | 0.0133 | -0.0076 | -0.048 | -0.0167 | -0.0121 | -0.0402 | -0.0186 | -0.0348
6 | CN(CCO)CC[C@H](CSc1ccccc1)Nc1ccc(S(=O)(=O)NC(=O)c2ccc(N3CCC([C@@H](O)c4ccccc4-c4ccc(Cl)cc4)CC3)cc2)cc1S(=O)(=O)C(F)(F)F [AZD4320] + C[C@@H](Nc1cc(F)cc(F)c1)c1cc(C(=O)N(C)C)cc2c(=O)cc(N3CCOCC3)oc12 [AZD8186] (first compound max 1 µM, 7x7, partner max 3 µM) | 0.972 | 0.476 | 0.446 | -0.0236 | -0.0141 | 0.0463 | 0.0304 | -0.0076 | -0.0104 | -0.0196 | 0.0803 | 0.0398 | 0.01 | -0.0227 | -0.0528 | 0.0227 | 0.0429 | 0.0202 | -0.0485 | 0.0063
7 | CN(CCO)CC[C@H](CSc1ccccc1)Nc1ccc(S(=O)(=O)NC(=O)c2ccc(N3CCC([C@@H](O)c4ccccc4-c4ccc(Cl)cc4)CC3)cc2)cc1S(=O)(=O)C(F)(F)F [AZD4320] + Cc1cc2ncnn2cc1Nc1ncc2c(n1)n(C1CCOCC1)c(=O)n2C [AZD7648] (first compound max 1 µM, 7x7, partner max 10 µM) | 0.696 | 0.163 | 0.182 | 0.0018 | -0.0309 | -0.037 | -0.0436 | -0.0532 | -0.0477 | 0.007 | -0.01 | -0.0096 | -0.0097 | -0.0165 | -0.043 | -0.0572 | -0.0488 | -0.0469 | -0.02 | -0.0342
8 | CN(CCO)CC[C@H](CSc1ccccc1)Nc1ccc(S(=O)(=O)NC(=O)c2ccc(N3CCC([C@@H](O)c4ccccc4-c4ccc(Cl)cc4)CC3)cc2)cc1S(=O)(=O)C(F)(F)F [AZD4320] + Cn1cnc2c(F)c(Nc3ccc(Br)cc3Cl)c(C(=O)NOCCO)cc21 [Selumetinib] (first compound max 1 µM, 7x7, partner max 3 µM) | 1 | 0.342 | 0.629 | -0.0155 | 0.032 | 0.012 | 0.0043 | 0.136 | 0.0374 | -0.0592 | 0.152 | 0.0103 | -0.0124 | 0.043 | 0.0193 | 0.0392 | -0.0388 | 0.0111 | -0.0267 | 0.0065
9 | COc1nnc2ccc(N3CCC(c4ccc(OCCN5CCN(C)C(=O)[C@H]5C)cc4)CC3)nn12 [AZD5153] + CN(CC[C@H](CSC1=CC=CC=C1)NC2=C(C=C(C=C2)S(=O)(=O)NC(=O)C3=CC=C(C=C3)N4CCC(CC4)[C@H](C5=CC=CC=C5C6=CC=C(C=C6)Cl)O)S(=O)(=O)C(F)(F)F)CCO [AZD4320] (first compound max 1 µM, 7x7, partner max 1 µM) | – | – | – | – | 0.036 | – | – | – | – | – | – | – | 0.0258 | – | – | – | – | – | – | –
10 | Cc1nc(Nc2ncc(C(=O)Nc3c(C)cccc3Cl)s2)cc(N2CCN(CCO)CC2)n1 [Dasatinib] + CC(=O)Nc1cccc(-n2c(=O)n(C3CC3)c(=O)c3c(Nc4ccc(I)cc4F)n(C)c(=O)c(C)c32)c1 [Trametinib] (first compound max 2 µM, 7x7, partner max 1 µM) | 0.876 | 0.982 | 0.681 | -0.04 | -0.0107 | -0.0332 | -0.0129 | -0.0578 | -0.0483 | 0.0027 | -0.0217 | -0.0483 | -0.0487 | -0.0522 | 0.024 | -0.0331 | -0.044 | 0.029 | -0.076 | –
11 | CC(=O)c1c(C)c2cnc(Nc3ccc(N4CCNCC4)cn3)nc2n(C2CCCC2)c1=O [Palbociclib] + CN(CC[C@H](CSC1=CC=CC=C1)NC2=C(C=C(C=C2)S(=O)(=O)NC(=O)C3=CC=C(C=C3)N4CCC(CC4)[C@H](C5=CC=CC=C5C6=CC=C(C=C6)Cl)O)S(=O)(=O)C(F)(F)F)CCO [AZD4320] (first compound max 10 µM, 7x7, partner max 1 µM) | – | – | – | – | -0.0622 | – | – | – | – | – | – | – | 0.0028 | – | – | – | – | – | – | –
12 | N#Cc1cnc(Nc2cc(NC[C@H]3CNCCO3)c(C(F)(F)F)cn2)cn1 [SRA737] + Nc1ccn([C@@H]2O[C@H](CO)[C@@H](O)C2(F)F)c(=O)n1 [Gemcitabine] (first compound max 10 µM, 7x7, partner max 0.3 µM) | 1 | 0.846 | 0.685 | -0.0375 | 0.058 | 0.0226 | 0.0472 | -0.0663 | 0.008 | -0.025 | – | -0.012 | 0.0613 | -0.0155 | -0.0336 | -0.0313 | -0.0067 | 0.0099 | -0.0087 | -0.054
13 | C[C@@H](c1ccc2nccn2c1)n1nnc2ncc(-c3cnn(C)c3)nc21 [Savolitinib] + CN(CC[C@H](CSC1=CC=CC=C1)NC2=C(C=C(C=C2)S(=O)(=O)NC(=O)C3=CC=C(C=C3)N4CCC(CC4)[C@H](C5=CC=CC=C5C6=CC=C(C=C6)Cl)O)S(=O)(=O)C(F)(F)F)CCO [AZD4320] (first compound max 1 µM, 7x7, partner max 1 µM) | – | – | – | – | -0.0642 | – | – | – | – | – | – | – | -0.0154 | – | – | – | – | – | – | –
